According to patent US4464396A, “4-[N-(Hydroxybenzyl)aminomethyl]cyclohexane-1-carboxylic acid” (Kureha Kagaku Kogyo Kabushiki Kaisha, priority 1981, dated 1984):
pIC50: −log10 of the molar value.

Key:
[1] = test system: Rat's polynuclear leukocyte migration; experiment: Inhibitory effect on polynuclear leukocyte migration (Boyden method); type: cell-based; conditions: rat polynuclear leukocytes, read-out: Concentration of 50% inhibition of polynuclear leukocyte migration IC50
Excerpt: (1) Examination for inhibitory effect on polynuclear leukocyte migration:
Rat's polynuclear leukocyte migration was examined by the Boyden method.

[2] = Acute toxicity, peroral administration of aqueous solution to mice; conditions: mouse, in vivo, po, female JCL-ICR mice 5 to 6 weeks old
Excerpt: (2) Examination for acute toxicity:
Acute toxicity was examined by administering perorally an aqueous solution of each Specimen to female JCL-ICR mice 5 to 6 weeks after their birth.

SMILES | pIC50 [1] | LD50 [2] [mg/kg]
COc1ccc2c(c1)c(CC(=O)O)c(C)n2C(=O)c1ccc(Cl)cc1 [III] | 3.62 | 
O=C(O)[C@H]1CC[C@H](CNCc2ccc(O)c(O)c2)CC1 [II] | 4.49 | > 3000
O=C(O)[C@H]1CC[C@H](CNCc2ccccc2O)CC1 [I] | 3.47 | > 3000
